# Test results: ChEMBL document CHEMBL2331448, “Optimization of potent and selective dual mTORC1 and mTORC2 inhibitors: the discovery of AZD8055 and AZD2014” (Bioorg Med Chem Lett, 2013)
# Legend:
# [1] = Lipophilicity, log D of the compound; format: physicochemical; settings: octanol/water
# [2] = Clearance in human hepatocytes assessed per 10^6 cells; format: ADME, cell-based, Hepatocyte; settings: read-out: CLH
# [3] = test system: MDR1; experiment: Apparent permeability from basolateral to apical side of MDCK2 cells expressing human MDR1 at 10 uM; format: ADME, cell-based, Canis lupus familiaris, MDCK-II; settings: dog, MDCK-MDR1
# [4] = test system: MDR1; experiment: Apparent permeability from apical to basolateral side of MDCK2 cells expressing human MDR1 at 10 uM; format: ADME, cell-based, Canis lupus familiaris, MDCK-II; settings: dog, MDCK-MDR1
# [5] = Oral bioavailability in rat; settings: in vivo
# [6] = Clearance in CD1 mouse at 10 umol/kg, iv; format: ADME, organism-based; settings: in vivo
# [7] = Oral bioavailability in CD1 mouse at 20 umol/kg; format: ADME, organism-based; settings: in vivo
# [8] = Clearance in rat at 4 umol/kg, iv; format: ADME, organism-based; settings: in vivo
# [9] = Clearance in rat at 1 umol/kg, iv; format: ADME, organism-based; settings: in vivo
# [10] = Oral bioavailability in rat at 6 umol/kg; format: ADME, organism-based; settings: in vivo
compound,measurement,setting,value
C[C@@H]1CN(c2nc(N3CCOC[C@@H]3C)c3ccc(-c4ccccc4)nc3n2)C[C@H](C)O1,logD,[1],3.75
C[C@H]1COCCN1c1nc(N2CCOC[C@@H]2C)c2ccc(-c3ccc4nc[nH]c(=O)c4c3)nc2n1,hepatocyte CLint,[2],176 µL/min/1e6 cells
COc1ccc(-c2ccc3c(N4CCOC[C@@H]4C)nc(N4CCOC[C@@H]4C)nc3n2)cc1C(N)=O,hepatocyte CLint,[2],33.2 µL/min/1e6 cells
CNC(=O)c1cc(-c2ccc3c(N4CCOC[C@@H]4C)nc(N4CCOC[C@@H]4C)nc3n2)ccc1OC(F)F,hepatocyte CLint,[2],14.9 µL/min/1e6 cells
COc1ccc(-c2ccc3c(N4CCOCC4)nc(N4C[C@@H](C)O[C@@H](C)C4)nc3n2)cc1CNCCO,Papp B→A at 10 µM,[3],16.6 ×10⁻⁶ cm/s
same,Papp A→B at 10 µM,[4],45.3 ×10⁻⁶ cm/s
COc1ccc(-c2ccc3c(N4CCOC[C@@H]4C)nc(N4CCOC[C@@H]4C)nc3n2)cc1CO [AZD-8055],logD,[1],3.23
same,bioavailability,[5],12%
same,clearance,[6],42.8 mL/min/kg
same,bioavailability,[7],81%
same,hepatocyte CLint,[2],36.4 µL/min/1e6 cells
same,clearance,[8],36.6 mL/min/kg
COc1ccc(-c2ccc3c(N4CCOC[C@@H]4C)nc(N4CCOC[C@@H]4C)nc3n2)cc1C(=O)N(C)C,hepatocyte CLint,[2],4.3 µL/min/1e6 cells
C[C@@H]1CN(c2nc(N3CCOC[C@@H]3C)c3ncc(-c4ccccc4)nc3n2)C[C@H](C)O1,logD,[1],> 4
C[C@H]1COCCN1c1nc(N2CCOC[C@@H]2C)c2ccc(-c3cccc(C(=O)NCCO)c3)nc2n1,hepatocyte CLint,[2],< 5.4 µL/min/1e6 cells
CNC(=O)c1cc(-c2ccc3c(N4CCOC[C@@H]4C)nc(N4CCOC[C@@H]4C)nc3n2)ccc1OC,hepatocyte CLint,[2],14.3 µL/min/1e6 cells
COc1ccc(-c2ccc3c(N4CCOCC4)nc(N4C[C@@H](C)O[C@@H](C)C4)nc3n2)cc1CO [Ku-0063794],clearance,[6],3.1 mL/min/kg
same,bioavailability,[7],61%
same,Papp B→A at 10 µM,[3],15 ×10⁻⁶ cm/s
same,clearance,[9],35.8 mL/min/kg
same,Papp A→B at 10 µM,[4],2.6 ×10⁻⁶ cm/s
same,bioavailability,[10],33%
CNC(=O)c1cccc(-c2ccc3c(N4CCOC[C@@H]4C)nc(N4CCOC[C@@H]4C)nc3n2)c1 [VISTUSERTIB],logD,[1],3.16
same,bioavailability,[5],40%
same,clearance,[6],10.4 mL/min/kg
same,bioavailability,[7],> 100%
same,hepatocyte CLint,[2],< 4.2 µL/min/1e6 cells
same,clearance,[8],12.6 mL/min/kg
COc1ccc(-c2ccc3c(N4CCOC[C@@H]4C)nc(N4CCOC[C@@H]4C)nc3n2)cc1C(C)O (some centres undefined),hepatocyte CLint,[2],37.8 µL/min/1e6 cells
